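Test compounds were applied to cells in 96-well plates for 48 hours at 5 doses. Abbreviation: GI50, concentration required for 50% inhibition of growth.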 Activity calls are given as the source filed them. Cut-off read from the data, not from the text of the source: active = GI50 up to about 1.1 µM and inactive = higher.
Columns and labels:
Experiment in all cases: inhibition of tumour cell growth, NCI panel, 48 h
[1] = test system: TK-10
[2] = test system: K562
[3] = test system: NCI-H23
[4] = test system: SNB-19
[5] = test system: 786-0
[6] = test system: MDA-MB-435
[7] = test system: Hs-578T
[8] = test system: MCF7
[9] = test system: A549
[10] = test system: SF-539
[11] = test system: BT-549
[12] = test system: SW-620
[13] = test system: SK-MEL-5
[14] = test system: IGROV-1
[15] = test system: DU-145
[16] = test system: LOX IMVI
[17] = test system: NCI-H460
[18] = test system: MOLT-4
[19] = test system: RXF 393
[20] = test system: HT-29
[21] = test system: CCRF-CEM
[22] = test system: SF-268
[23] = test system: HL-60
[24] = test system: UACC-62
[25] = test system: PC-3
[26] = test system: KM12
[27] = test system: SNB-75
[28] = test system: U-251
[29] = test system: NCI-H226
[30] = test system: OVCAR-5
[31] = test system: HOP-92
[32] = test system: SR
[33] = test system: UACC-257
[34] = test system: ACHN
[35] = test system: SF-295
[36] = test system: OVCAR-3
[37] = test system: UO-31
[38] = test system: NCI-H522
[39] = test system: M14
[40] = test system: EKVX
[41] = test system: OVCAR-8
[42] = test system: OVCAR-4
[43] = test system: SK-MEL-2
[44] = test system: SK-MEL-28
[45] = test system: COLO 205
[46] = test system: NCI/ADR-RES
[47] = test system: SN12C
[48] = test system: MDA-MB-231
[49] = test system: CAKI-1
[50] = test system: T47D
[51] = test system: HCT-116
[52] = test system: SK-OV-3
[53] = test system: HCT-15
[54] = test system: RPMI-8226
[55] = test system: Malme-3M
[56] = test system: HCC 2998
[57] = test system: MDA-N
[58] = test system: HOP-62
[59] = test system: A498

COc1cc(C2C(Cl)C(=O)N2NC(=O)c2ccccc2O)cc(OC)c1OC (stereo not given)
GI50 [1]: 8.51 µM (inactive) | GI50 [2]: 2.95 µM (inactive) | GI50 [3]: 2.4 µM (inactive) | GI50 [4]: 7.05 µM (inactive) | GI50 [5]: > 10 µM (inactive) | GI50 [6]: 6.03 µM (inactive) | GI50 [7]: 8.38 µM (inactive) | GI50 [8]: 2.9 µM (inactive) | GI50 [9]: 4.27 µM (inactive) | GI50 [10]: 3.5 µM (inactive) | GI50 [11]: > 10 µM (inactive) | GI50 [12]: 2.63 µM (inactive) | GI50 [13]: 5.07 µM (inactive) | GI50 [14]: 0.188 µM (active) | GI50 [15]: 0.284 µM (active) | GI50 [16]: 3.7 µM (inactive) | GI50 [17]: 2.64 µM (inactive) | GI50 [18]: 3.01 µM (inactive) | GI50 [19]: > 10 µM (inactive) | GI50 [20]: 2.75 µM (inactive) | GI50 [21]: 1.65 µM (inactive) | GI50 [22]: 5.73 µM (inactive) | GI50 [23]: 0.733 µM (active) | GI50 [24]: 2.89 µM (inactive) | GI50 [25]: 3.52 µM (inactive) | GI50 [26]: 5.58 µM (inactive) | GI50 [27]: > 10 µM (inactive) | GI50 [28]: 3.54 µM (inactive) | GI50 [29]: 4.49 µM (inactive) | GI50 [30]: 5.96 µM (inactive) | GI50 [31]: 5.66 µM (inactive) | GI50 [32]: 2.98 µM (inactive) | GI50 [33]: 1.89 µM (inactive) | GI50 [34]: 3.79 µM (inactive) | GI50 [35]: 1.8 µM (inactive) | GI50 [36]: 4.72 µM (inactive) | GI50 [37]: 7.76 µM (inactive) | GI50 [38]: 2.87 µM (inactive) | GI50 [39]: 6.31 µM (inactive) | GI50 [40]: 5.27 µM (inactive) | GI50 [41]: 2.47 µM (inactive) | GI50 [42]: 3.99 µM (inactive)

Cc1cn2c(/C=N/NC(=N)N)c(-c3cc([N+](=O)[O-])c(Cl)cc3Cl)nc2s1
GI50 [1]: 2.3 µM (inactive) | GI50 [4]: 1.87 µM (inactive) | GI50 [43]: 2.35 µM (inactive) | GI50 [8]: 0.49 µM (active) | GI50 [9]: 4.06 µM (inactive) | GI50 [44]: 2.22 µM (inactive) | GI50 [45]: 0.55 µM (active) | GI50 [46]: > 100 µM (inactive) | GI50 [10]: 2.52 µM (inactive) | GI50 [11]: 2.51 µM (inactive) | GI50 [13]: 2.77 µM (inactive) | GI50 [14]: 1.8 µM (inactive) | GI50 [17]: 2.29 µM (inactive) | GI50 [20]: 1.13 µM (inactive) | GI50 [23]: 1.61 µM (inactive) | GI50 [24]: 1.98 µM (inactive) | GI50 [25]: 2.34 µM (inactive) | GI50 [26]: 0.455 µM (active) | GI50 [31]: 3.32 µM (inactive) | GI50 [33]: 2.24 µM (inactive) | GI50 [35]: 2.08 µM (inactive) | GI50 [37]: 1.83 µM (inactive) | GI50 [38]: 1.47 µM (inactive) | GI50 [47]: 2.24 µM (inactive) | GI50 [48]: 2.4 µM (inactive) | GI50 [41]: 2.63 µM (inactive) | GI50 [42]: 1.91 µM (inactive)

COc1ccc(CNc2nc(NCc3ccc(OC)c(OC)c3)nc(NC3CCCCC3)n2)cc1
GI50 [1]: 18.5 µM (inactive) | GI50 [2]: 1.24 µM (inactive) | GI50 [3]: 2.86 µM (inactive) | GI50 [4]: > 100 µM (inactive) | GI50 [5]: 5.64 µM (inactive) | GI50 [6]: 0.531 µM (active) | GI50 [49]: 3.17 µM (inactive) | GI50 [43]: 4.26 µM (inactive) | GI50 [7]: 2.49 µM (inactive) | GI50 [8]: 1.29 µM (inactive) | GI50 [9]: 5.46 µM (inactive) | GI50 [44]: > 100 µM (inactive) | GI50 [45]: 2.34 µM (inactive) | GI50 [46]: 2.55 µM (inactive) | GI50 [10]: 2.29 µM (inactive) | GI50 [11]: 4.57 µM (inactive) | GI50 [12]: 2.89 µM (inactive) | GI50 [13]: 0.716 µM (active) | GI50 [14]: 4.49 µM (inactive) | GI50 [15]: 3.4 µM (inactive) | GI50 [16]: 5.33 µM (inactive) | GI50 [50]: 4.48 µM (inactive) | GI50 [17]: 2.8 µM (inactive) | GI50 [51]: 2.69 µM (inactive) | GI50 [18]: 5.22 µM (inactive) | GI50 [19]: 2.23 µM (inactive) | GI50 [20]: 2.88 µM (inactive) | GI50 [21]: 3.66 µM (inactive) | GI50 [23]: 2.77 µM (inactive) | GI50 [24]: 2.3 µM (inactive) | GI50 [52]: > 100 µM (inactive) | GI50 [53]: 731 nM | GI50 [25]: 3.77 µM (inactive) | GI50 [26]: 1.21 µM (inactive) | GI50 [27]: 3.38 µM (inactive) | GI50 [54]: 3.6 µM (inactive) | GI50 [28]: 3.44 µM (inactive) | GI50 [29]: 6.55 µM (inactive) | GI50 [30]: 4.88 µM (inactive) | GI50 [31]: > 100 µM (inactive) | GI50 [32]: 0.611 µM (active) | GI50 [33]: > 100 µM (inactive) | GI50 [34]: 7.94 µM (inactive) | GI50 [35]: 2.04 µM (inactive) | GI50 [36]: 5.38 µM (inactive) | GI50 [37]: 5.18 µM (inactive) | GI50 [38]: 1.69 µM (inactive) | GI50 [47]: 6.18 µM (inactive) | GI50 [48]: 5.13 µM (inactive) | GI50 [39]: 4.61 µM (inactive) | GI50 [40]: 10.4 µM (inactive) | GI50 [41]: 7.41 µM (inactive) | GI50 [55]: 37.2 µM (inactive) | GI50 [42]: 9.06 µM (inactive)

N#CC(C#N)C1CN2CCC1CC2 (stereo not given)
GI50 [1]: > 100 µM (inactive) | GI50 [2]: > 100 µM (inactive) | GI50 [3]: > 100 µM (inactive) | GI50 [4]: > 100 µM (inactive) | GI50 [5]: > 100 µM (inactive) | GI50 [56]: > 100 µM (inactive) | GI50 [6]: > 100 µM (inactive) | GI50 [49]: > 100 µM (inactive) | GI50 [43]: > 100 µM (inactive) | GI50 [7]: > 100 µM (inactive) | GI50 [8]: > 100 µM (inactive) | GI50 [9]: > 100 µM (inactive) | GI50 [44]: > 100 µM (inactive) | GI50 [45]: > 100 µM (inactive) | GI50 [46]: > 100 µM (inactive) | GI50 [10]: > 100 µM (inactive) | GI50 [12]: > 100 µM (inactive) | GI50 [13]: > 100 µM (inactive) | GI50 [14]: > 100 µM (inactive) | GI50 [15]: > 100 µM (inactive) | GI50 [16]: > 100 µM (inactive) | GI50 [50]: > 100 µM (inactive) | GI50 [17]: > 100 µM (inactive) | GI50 [51]: > 100 µM (inactive) | GI50 [18]: > 100 µM (inactive) | GI50 [19]: 90.4 µM (inactive) | GI50 [20]: > 100 µM (inactive) | GI50 [21]: > 100 µM (inactive) | GI50 [22]: > 100 µM (inactive) | GI50 [23]: > 100 µM (inactive) | GI50 [24]: > 100 µM (inactive) | GI50 [52]: > 100 µM (inactive) | GI50 [53]: > 100000 nM | GI50 [25]: > 100 µM (inactive) | GI50 [26]: > 100 µM (inactive) | GI50 [27]: > 100 µM (inactive) | GI50 [57]: > 100 µM (inactive) | GI50 [54]: > 100 µM (inactive) | GI50 [28]: > 100 µM (inactive) | GI50 [29]: > 100 µM (inactive) | GI50 [30]: > 100 µM (inactive) | GI50 [32]: > 100 µM (inactive) | GI50 [58]: > 100 µM (inactive) | GI50 [33]: > 100 µM (inactive) | GI50 [34]: > 100 µM (inactive) | GI50 [35]: > 100 µM (inactive) | GI50 [36]: > 100 µM (inactive) | GI50 [37]: > 100 µM (inactive) | GI50 [38]: > 100 µM (inactive) | GI50 [47]: > 100 µM (inactive) | GI50 [48]: > 100 µM (inactive) | GI50 [39]: > 100 µM (inactive) | GI50 [59]: > 100 µM (inactive) | GI50 [40]: > 100 µM (inactive) | GI50 [41]: 79.6 µM (inactive) | GI50 [55]: > 100 µM (inactive) | GI50 [42]: > 100 µM (inactive)
